According to the supplement of paper PMC11451515:

Test system: SEM cells
Experiment: cell viability relative to DMSO control; higher = less cytotoxic
Settings: 48 h
How it was run: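 Library compounds in DMSO were pin-dosed into 1536-well plates (5 μl) holding NOMO1 or SEM (500 cells/well) or P12-Ichikawa (1000 cells/well) leukemia cells, across an 11-point threefold series of 47 μM to 0.79 nM. Each cell line had been adapted for at least four passages in each medium. CellTiter-Glo One luminescence was read after 48 h at 37°C. Viability is the per-plate percentage relative to DMSO wells, with cell-free wells as background.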

[1] = HPLM + 10% dialyzed FBS, 0.000781 µM
[2] = HPLM + 10% dialyzed FBS, 0.00234 µM
[3] = HPLM + 10% dialyzed FBS, 0.00702 µM
[4] = HPLM + 10% dialyzed FBS, 0.0211 µM
[5] = HPLM + 10% dialyzed FBS, 0.0632 µM
[6] = HPLM + 10% dialyzed FBS, 0.19 µM
[7] = HPLM + 10% dialyzed FBS, 0.569 µM
[8] = HPLM + 10% dialyzed FBS, 1.71 µM
[9] = HPLM + 10% dialyzed FBS, 5.12 µM
[10] = HPLM + 10% dialyzed FBS, 15.4 µM
[11] = HPLM + 10% dialyzed FBS, 46.1 µM
[12] = RPMI 5 mM glucose + 10% FBS, 0.000781 µM
[13] = RPMI 5 mM glucose + 10% FBS, 0.00234 µM
[14] = RPMI 5 mM glucose + 10% FBS, 0.00702 µM
[15] = RPMI 5 mM glucose + 10% FBS, 0.0211 µM
[16] = RPMI 5 mM glucose + 10% FBS, 0.0632 µM
[17] = RPMI 5 mM glucose + 10% FBS, 0.19 µM
[18] = RPMI 5 mM glucose + 10% FBS, 0.569 µM
[19] = RPMI 5 mM glucose + 10% FBS, 1.71 µM
[20] = RPMI 5 mM glucose + 10% FBS, 5.12 µM
[21] = RPMI 5 mM glucose + 10% FBS, 15.4 µM
[22] = RPMI 5 mM glucose + 10% FBS, 46.1 µM
[23] = RPMI 5 mM glucose + 10% dialyzed FBS, 0.000781 µM
[24] = RPMI 5 mM glucose + 10% dialyzed FBS, 0.00234 µM
[25] = RPMI 5 mM glucose + 10% dialyzed FBS, 0.00702 µM
[26] = RPMI 5 mM glucose + 10% dialyzed FBS, 0.0211 µM
[27] = RPMI 5 mM glucose + 10% dialyzed FBS, 0.0632 µM
[28] = RPMI 5 mM glucose + 10% dialyzed FBS, 0.19 µM
[29] = RPMI 5 mM glucose + 10% dialyzed FBS, 0.569 µM
[30] = RPMI 5 mM glucose + 10% dialyzed FBS, 1.71 µM
[31] = RPMI 5 mM glucose + 10% dialyzed FBS, 5.12 µM
[32] = RPMI 5 mM glucose + 10% dialyzed FBS, 15.4 µM
[33] = RPMI 5 mM glucose + 10% dialyzed FBS, 46.1 µM

| SMILES | cell viability [1] [%] | cell viability [2] [%] | cell viability [3] [%] | cell viability [4] [%] | cell viability [5] [%] | cell viability [6] [%] | cell viability [7] [%] | cell viability [8] [%] | cell viability [9] [%] | cell viability [10] [%] | cell viability [11] [%] | cell viability [12] [%] | cell viability [13] [%] | cell viability [14] [%] | cell viability [15] [%] | cell viability [16] [%] | cell viability [17] [%] | cell viability [18] [%] | cell viability [19] [%] | cell viability [20] [%] | cell viability [21] [%] | cell viability [22] [%] | cell viability [23] [%] | cell viability [24] [%] | cell viability [25] [%] | cell viability [26] [%] | cell viability [27] [%] | cell viability [28] [%] | cell viability [29] [%] | cell viability [30] [%] | cell viability [31] [%] | cell viability [32] [%] | cell viability [33] [%] |
| --- | --- | --- | --- | --- | --- | --- | --- | --- | --- | --- | --- | --- | --- | --- | --- | --- | --- | --- | --- | --- | --- | --- | --- | --- | --- | --- | --- | --- | --- | --- | --- | --- | --- |
| OC1CCC(Nc2ncc3nc(Nc4c(F)cc(F)cc4F)n([C@@H]4CCOC4)c3n2)CC1 (some centres undefined) | 96.4 | 93.4 | 99.2 | 110 | 118 | 108 | 110 | 107 | 125 | 80.9 | 91.4 | 96.5 | 92.9 | 103 | 95.7 | 105 | 101 | 97.4 | 105 | 95.4 | 40.9 | 99.4 | 90.4 | 111 | 114 | 96.1 | 112 | 116 | 118 | 116 | 100 | 84.3 | 87.3 |
| COc1ccc(-c2nc(N3CCOCC3)c3sc(CN(C)c4ncc(C(=O)NO)cn4)cc3n2)cn1 | 88.4 | 101 | 67.8 | 34.5 | 6.86 | 6.43 | 6.72 | 6.14 | 6.01 | 5.89 | 4.98 | 90.5 | 83.6 | 49.9 | 20.5 | 6.31 | 6.48 | 5.87 | 5.83 | 6.2 | 5.41 | 3.98 | 97 | 108 | 78.3 | 37.7 | 7.5 | 7.3 | 6.64 | 6.58 | 5.98 | 6.08 | 4.38 |
| CC(C)CC(=O)N[C@H](C(=O)N[C@H](C(=O)N[C@@H](CC(C)C)[C@@H](O)CC(=O)N[C@@H](C)C(=O)N[C@@H](CC(C)C)[C@@H](O)CC(=O)O)C(C)C)C(C)C | 94.4 | 89.1 | 109 | 103 | 74.7 | 95.9 | 101 | 108 | 97.7 | 96.6 | 14.5 | 82.7 | 96.7 | 115 | 94.7 | 68.1 | 104 | 106 | 99 | 98.7 | 89.6 | 10.4 | 93.5 | 116 | 92.2 | 93.4 | 73.1 | 110 | 95.5 | 99.1 | 94.9 | 91.6 | 10.9 |
| COc1cc(OC)c(/C=C/[S+](=O)([O-])Cc2ccc(OC)c(NCC(=O)[O][Na])c2)c(OC)c1 | 123 | 105 | 125 | 125 | 118 | 75.9 | 29.5 | 28.2 | 27 | 21.9 | 13.4 | 109 | 107 | 115 | 112 | 111 | 66.3 | 20 | 17.8 | 15.2 | 9.59 | 7.67 | 121 | 122 | 122 | 120 | 121 | 24.1 | 24.3 | 18.8 | 10.1 | 7.92 | 8.13 |
| O=C(NC[C@H](O)CO)c1ccncc1Nc1ccc(I)cc1F | 94.4 | 104 | 38.1 | 118 | 106 | 105 | 88.3 | 83.4 | 85.7 | 85.4 | 64.4 | 94.4 | 97.6 | 19.3 | 101 | 108 | 89.2 | 85.7 | 80.1 | 68.3 | 64.6 | 43.6 | 97.2 | 108 | 35.1 | 99 | 99.8 | 85.3 | 84.2 | 70.3 | 72.7 | 56.3 | 54.7 |
| COc1cc2ncnc(Nc3ccc(F)c(Cl)c3)c2cc1NC(=O)/C=C/CN1CCCCC1 | 94.2 | 112 | 110 | 102 | 105 | 99.1 | 94.6 | 85.5 | 76.7 | 71.4 | 42.4 | 119 | 129 | 120 | 119 | 122 | 117 | 124 | 91.3 | 88.6 | 80.2 | 42.3 | 97.9 | 85.6 | 96.4 | 116 | 93.3 | 87 | 104 | 76.6 | 77.6 | 66.7 | 41.3 |
| COC1=C2OC(=O)\C=C/C2=CC3=C1OC=C3 | 121 | 117 | 129 | 126 | 124 | 123 | 121 | 115 | 116 | 107 | 93.4 | – | – | – | – | – | – | – | – | – | – | – | 123 | 132 | 124 | 110 | 123 | 133 | 128 | 109 | 115 | 108 | 93.7 |
| O=C(O)c1ccc2c(c1)nc(Nc1cccc(Cl)c1)c1ccncc12 | 103 | 114 | 106 | 105 | 110 | 101 | 117 | 102 | 77.6 | 35.9 | 48.8 | 107 | 108 | 98.5 | 103 | 111 | 127 | 104 | 98.1 | 70.7 | 32.1 | 46 | 103 | 103 | 105 | 99.5 | 107 | 125 | 114 | 102 | 62.2 | 30.4 | 38.5 |
| COc1ncc(-c2ccc3nccc(-c4ccnnc4)c3c2)cc1N[S+](=O)([O-])c1ccc(F)cc1F | 81 | 71.8 | 60.5 | 66.9 | 59.4 | 50.4 | 43.9 | 30 | 21.1 | 6.8 | 6.02 | 79 | 65 | 74.8 | 61.7 | 51.9 | 46.7 | 37 | 19.2 | 14.2 | 6.8 | 5.84 | 98.1 | 79.9 | 67.8 | 68.7 | 64.6 | 54.4 | 51.9 | 26.5 | 16.7 | 6.57 | 5.89 |
| CCOC(=O)\C1=C(/C)N\C2=C(C1C3=CC=C(C=C3)C4=CC=CC=C4)\C(=O)CC(C)(C)C2 (centres undefined) | 107 | 104 | 101 | 105 | 104 | 113 | 103 | 102 | 105 | 92 | 60.4 | 101 | 122 | 134 | 114 | 144 | 108 | 110 | 112 | 108 | 96.1 | 58.4 | 89.4 | 116 | 111 | 98.3 | 104 | 89.4 | 97.5 | 103 | 89.8 | 81.1 | 57.6 |
| CC(C)NC[C@@H](C(=O)N1CCN(c2ncnc3c2[C@H](C)C[C@H]3O)CC1)c1ccc(Cl)cc1 | 113 | 103 | 115 | 89.3 | 87.6 | 63.6 | 36.9 | 23.1 | 12.1 | 9.57 | 1.69 | 103 | 112 | 127 | 101 | 74.3 | 61.3 | 36.9 | 32.5 | 13.8 | 5.24 | 1.73 | 117 | 90.3 | 93 | 79.4 | 93.2 | 48.5 | 34.9 | 20.5 | 9.56 | 4.26 | 2.07 |
| Cc1cn(-c2cc(NC(=O)c3ccc(C)c(Nc4nccc(-c5cccnc5)n4)c3)cc(C(F)(F)F)c2)cn1 | 83.5 | 92.7 | 97.1 | 107 | 107 | 109 | 95.2 | 52.4 | 40.9 | 37.3 | 35.4 | 106 | 120 | 108 | 124 | 111 | 125 | 110 | 31.4 | 31.6 | 21.4 | 17.5 | 111 | 106 | 104 | 110 | 111 | 98.9 | 102 | 26.9 | 33.6 | 21.5 | 17.2 |
| CNC[C@H](O)c1ccc(O)c(O)c1 | 90.5 | 85.8 | 71.9 | 73.9 | 77.3 | 17.6 | 63 | 68.7 | 61.3 | 70.5 | 53.1 | 104 | 97.3 | 85.6 | 73.1 | 102 | 30.8 | 87.9 | 83.7 | 79.8 | 90.7 | 82.4 | 104 | 111 | 85.8 | 83.3 | 93.3 | 28.2 | 86.5 | 95.3 | 89.5 | 82.1 | 68.9 |
| O=C(O[C@H]1C[C@H]2CC[C@@H](C1)[N+]21CCCC1)C(O)(c1ccccc1)c1ccccc1.[Cl-] | 97.4 | 96.2 | 104 | 103 | 115 | 113 | 115 | 115 | 118 | 113 | 98.2 | 90 | 98.1 | 88.4 | 98.9 | 103 | 95.8 | 97.9 | 127 | 109 | 106 | 99.9 | 81 | 101 | 98.5 | 108 | 132 | 122 | 115 | 117 | 119 | 117 | 122 |
| CNC(=O)c1ccc(N2C(=S)N(c3ccc(C#N)c(C(F)(F)F)c3)C(=O)C23CCC3)cc1F | 87.3 | 98.8 | 95.9 | 19.5 | 92.3 | 97 | 97.8 | 95.2 | 101 | 96.9 | 97.3 | 84.7 | 83.4 | 104 | 14.2 | 83 | 98.3 | 99.3 | 91.7 | 86.7 | 98.3 | 96.3 | 84.3 | 83 | 104 | 15.8 | 102 | 101 | 96.3 | 96.9 | 98 | 96.3 | 111 |
